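Results reflect a 48-hour exposure of cells in 96-well plates to compound at five concentrations. At the GI50, growth is halved.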 Active and inactive are the calls of the source. Cut-off read from the data, not from the text of the source: active = GI50 up to about 1.1 µM and inactive = higher.
Tests used:
Assay in all cases: NCI tumour cell line growth inhibition, 48 h
A498 = tested on: A498
NCI-H23 = tested on: NCI-H23
SW-620 = tested on: SW-620
SNB-75 = tested on: SNB-75
SF-295 = tested on: SF-295
CCRF-CEM = tested on: CCRF-CEM
SK-MEL-5 = tested on: SK-MEL-5
U-251 = tested on: U-251
IGROV-1 = tested on: IGROV-1
SN12C = tested on: SN12C
HCT-15 = tested on: HCT-15
UACC-257 = tested on: UACC-257
NCI-H460 = tested on: NCI-H460
HT-29 = tested on: HT-29
M14 = tested on: M14
OVCAR-3 = tested on: OVCAR-3
ACHN = tested on: ACHN
HL-60 = tested on: HL-60
HCT-116 = tested on: HCT-116
HOP-92 = tested on: HOP-92

Row | SMILES | GI50 (A498) | GI50 (NCI-H23) | GI50 (SW-620) | GI50 (SNB-75) | GI50 (SF-295) | GI50 (CCRF-CEM) | GI50 (SK-MEL-5) | GI50 (U-251) | GI50 (IGROV-1) | GI50 (SN12C) | GI50 (HCT-15) | GI50 (UACC-257) | GI50 (NCI-H460) | GI50 (HT-29) | GI50 (M14) | GI50 (OVCAR-3) | GI50 (ACHN) | GI50 (HL-60) | GI50 (HCT-116) | GI50 (HOP-92)
1 | COc1ccc(/C=C/C(=O)C(C)(C)C)cc1OC | > 100 µM (inactive) | 41.5 µM (inactive) | 79.4 µM (inactive) | 34.4 µM (inactive) | > 100 µM (inactive) | 36.2 µM (inactive) | 54.1 µM (inactive) | > 100 µM (inactive) | > 100 µM (inactive) | 65.8 µM (inactive) | 38.5 µM | 63.5 µM (inactive) | > 100 µM (inactive) | 62.5 µM (inactive) | > 100 µM (inactive) | 64.7 µM (inactive) | > 100 µM (inactive) |  |  | 
2 | Cc1cn(C2CC(n3cc(Cn4ccc(=O)[nH]c4=O)nn3)C(CO)O2)c(=O)[nH]c1=O (stereo not given) | > 100 µM (inactive) | > 100 µM (inactive) | > 100 µM (inactive) | > 100 µM (inactive) | > 100 µM (inactive) | > 100 µM (inactive) | > 100 µM (inactive) | > 100 µM (inactive) |  | > 100 µM (inactive) | > 100 µM | > 100 µM (inactive) |  |  | > 100 µM (inactive) | > 100 µM (inactive) | > 100 µM (inactive) | 95.1 µM (inactive) | > 100 µM (inactive) | > 100 µM (inactive)
3 | Cc1ccc(/N=N/C(C2=NC(=O)CS2)c2nc3ccccc3[nH]2)cc1 (stereo not given) | > 100 µM (inactive) | > 100 µM (inactive) | > 100 µM (inactive) | 59.2 µM (inactive) | > 100 µM (inactive) | 29.9 µM (inactive) | > 100 µM (inactive) | > 100 µM (inactive) | > 100 µM (inactive) | > 100 µM (inactive) | > 100 µM | > 100 µM (inactive) | > 100 µM (inactive) | > 100 µM (inactive) | > 100 µM (inactive) | > 100 µM (inactive) | > 100 µM (inactive) | > 100 µM (inactive) | > 100 µM (inactive) | > 100 µM (inactive)
4 | CC(C)(Br)C(=O)N1CCN(C(c2ccccc2)c2ccccc2)CC1 | > 100 µM (inactive) | > 100 µM (inactive) | > 100 µM (inactive) | > 100 µM (inactive) | > 100 µM (inactive) | 49.2 µM (inactive) | 61.4 µM (inactive) | > 100 µM (inactive) | > 100 µM (inactive) | 84.9 µM (inactive) | 64.9 µM | 41.9 µM (inactive) | > 100 µM (inactive) | 39.5 µM (inactive) | > 100 µM (inactive) | 19.8 µM (inactive) | > 100 µM (inactive) | 21.5 µM (inactive) | 32.2 µM (inactive) | 68.4 µM (inactive)
5 | C=C(CO)C(=O)OC1CC(=C)C2CC(O)C(C)C2C2OC(=O)C(=C)C12 (stereo not given) | 39.6 µM (inactive) | > 100 µM (inactive) | 22.9 µM (inactive) | 19 µM (inactive) | 19.4 µM (inactive) | 31.2 µM (inactive) | 24.3 µM (inactive) | 26.7 µM (inactive) | 18.9 µM (inactive) | 18.2 µM (inactive) | 19.1 µM | 15.6 µM (inactive) | 35.8 µM (inactive) | 24.7 µM (inactive) | 17.3 µM (inactive) | 16 µM (inactive) | 18.4 µM (inactive) | 25.8 µM (inactive) | 33.2 µM (inactive) | 32.4 µM (inactive)
6 | CN1CCC(C(=O)NNc2ccccc2)CC1 | > 100 µM (inactive) | 42.4 µM (inactive) | 7.98 µM (inactive) | > 80.2 µM (inactive) | 2.12 µM (inactive) |  | 14.4 µM (inactive) | > 17.7 µM (inactive) | > 36.6 µM (inactive) | > 100 µM (inactive) | 1.61 µM | 18.6 µM (inactive) | 5.62 µM (inactive) | 7.53 µM (inactive) | 1.5 µM (inactive) | 16.9 µM (inactive) | 2.66 µM (inactive) | 2.65 µM (inactive) | > 43.4 µM (inactive) | > 100 µM (inactive)
7 | C#CCCCCC#Cc1ccccc1C(=O)OC | > 100 µM (inactive) | 37.4 µM (inactive) | 21.1 µM (inactive) | 20.6 µM (inactive) | 37.3 µM (inactive) | 2.91 µM (inactive) | 58.6 µM (inactive) | 65.6 µM (inactive) | 89.3 µM (inactive) | 35 µM (inactive) | 63.8 µM | 71.8 µM (inactive) | > 100 µM (inactive) | 30.5 µM (inactive) | > 100 µM (inactive) | 32.5 µM (inactive) | 64.3 µM (inactive) | 10.2 µM (inactive) | 11 µM (inactive) | 24.9 µM (inactive)
8 | Cc1c2ccccc2c(CO)c2cc(F)c3ccccc3c12 | 38.2 µM (inactive) | 36.5 µM (inactive) | 37.5 µM (inactive) | 29.9 µM (inactive) | 21.9 µM (inactive) | 22.3 µM (inactive) | 43.9 µM (inactive) | 21.3 µM (inactive) | 20.7 µM (inactive) | 17.3 µM (inactive) |  | 47.3 µM (inactive) |  | 19.1 µM (inactive) |  | 26.9 µM (inactive) | 19.5 µM (inactive) | 17.6 µM (inactive) | 19.3 µM (inactive) | 32.4 µM (inactive)
9 | CC1CC(c2ccc([N+](=O)[O-])cc2)=Nc2ccccc2[S+]1[O-] (stereo not given) | 18.2 µM (inactive) | 17.6 µM (inactive) | 15.3 µM (inactive) | 21.4 µM (inactive) | 21.4 µM (inactive) | 11 µM (inactive) | 15.5 µM (inactive) | 13.6 µM (inactive) | 15.6 µM (inactive) | 37.6 µM (inactive) | 14.6 µM | 20.2 µM (inactive) | 17.1 µM (inactive) | 12.9 µM (inactive) | 18.1 µM (inactive) |  | 21.3 µM (inactive) | 15.1 µM (inactive) | 2.11 µM (inactive) | 33.1 µM (inactive)
10 | CCCCCCNC(=O)C(C)C1CCC2(C)C=CC(=O)C(C)=C2C1O (stereo not given) | > 100 µM (inactive) | > 94 µM (inactive) | > 100 µM (inactive) | > 100 µM (inactive) | > 100 µM (inactive) | > 100 µM (inactive) | > 74.1 µM (inactive) | > 100 µM (inactive) | > 100 µM (inactive) | > 100 µM (inactive) | > 100 µM | > 94.8 µM (inactive) | > 100 µM (inactive) | > 100 µM (inactive) |  | > 100 µM (inactive) |  | > 64.4 µM (inactive) | > 100 µM (inactive) | 45.2 µM (inactive)
11 | COc1cc(OC)cc(N2CCC(c3c(N)nc(N)nc3Cl)CC2)c1 |  | > 100 µM (inactive) | 65 µM (inactive) | 47.6 µM (inactive) | 83 µM (inactive) | 47.1 µM (inactive) | 24.8 µM (inactive) |  | > 100 µM (inactive) | > 100 µM (inactive) | 99.5 µM | 43.7 µM (inactive) | 53.7 µM (inactive) |  | 75.3 µM (inactive) | 83.9 µM (inactive) | 70.5 µM (inactive) | 18 µM (inactive) |  | 48.4 µM (inactive)
12 | CC1(C)C(=O)OC(n2cc(F)c(=O)[nH]c2=O)C1=O (stereo not given) | > 100 µM (inactive) | > 100 µM (inactive) | > 100 µM (inactive) | > 100 µM (inactive) | > 100 µM (inactive) | > 100 µM (inactive) |  | > 100 µM (inactive) |  | > 100 µM (inactive) | > 100 µM | > 100 µM (inactive) | 55.1 µM (inactive) | > 100 µM (inactive) | > 100 µM (inactive) | > 100 µM (inactive) | > 100 µM (inactive) | > 100 µM (inactive) | 89.5 µM (inactive) | 26.5 µM (inactive)
13 | Cc1coc2c1C[C@@]1(C)[C@H](CCC[C@@H]1C)[C@H]2O |  | 36.8 µM (inactive) | 37.7 µM (inactive) |  | 30.9 µM (inactive) | 28.4 µM (inactive) | 15.1 µM (inactive) | 42.4 µM (inactive) | 19.8 µM (inactive) | 15.6 µM (inactive) | 36.2 µM | 31.8 µM (inactive) | > 100 µM (inactive) | 33.3 µM (inactive) | 60.4 µM (inactive) | 22.6 µM (inactive) | 24.7 µM (inactive) | 16.4 µM (inactive) | 29.6 µM (inactive) | 25.9 µM (inactive)
14 | Cc1cc2c(=O)c3ccccc3[nH]c2c(C(N)=O)c1C |  | > 100 µM (inactive) | > 100 µM (inactive) | > 100 µM (inactive) | > 100 µM (inactive) | > 100 µM (inactive) | > 100 µM (inactive) | > 100 µM (inactive) | > 100 µM (inactive) | > 100 µM (inactive) | > 100 µM | > 100 µM (inactive) | > 100 µM (inactive) | > 100 µM (inactive) | > 100 µM (inactive) | > 100 µM (inactive) | > 100 µM (inactive) |  | > 100 µM (inactive) | 
15 | Cc1ccc2c(O)cc(-c3ccc(F)cc3)nc2n1 | 25.1 µM (inactive) | 41.3 µM (inactive) | 28.6 µM (inactive) | 14.1 µM (inactive) |  | 32.1 µM (inactive) |  |  | 25.7 µM (inactive) | 52 µM (inactive) | 18.5 µM | 34.1 µM (inactive) |  | 30.1 µM (inactive) | 47.6 µM (inactive) |  | 42.6 µM (inactive) | 14.1 µM (inactive) |  | 19.7 µM (inactive)
